Assay results taken from publication PMC8147781, “Discovery of Pyrrolidine-2,3-diones as Novel Inhibitors of P. aeruginosa PBP3” (Antibiotics, 2021).
Converted amounts (≈) assume the structure as drawn.

Tests used:
[1] = target: T1, PBP3 of P. aeruginosa (PaPBP3) (Pseudomonas aeruginosa, UniProt G3XD46); test: S2dfluo fluorescence transpeptidase assay; format: biochemical; details: 300 nM PaPBP3, 30 min preincubation, 37 °C; for IC50: read-out: IC50 Determination with PaPBP3, S2dfluo Assay
T1 construct: P. aeruginosa PBP3 (amino acids 40 to 563); His-tag; made in house; host or cells: E. coli BL21 (DE3) Rosetta, plasmid pET41_PBP-3
T1 sequence (G3XD46 40-563): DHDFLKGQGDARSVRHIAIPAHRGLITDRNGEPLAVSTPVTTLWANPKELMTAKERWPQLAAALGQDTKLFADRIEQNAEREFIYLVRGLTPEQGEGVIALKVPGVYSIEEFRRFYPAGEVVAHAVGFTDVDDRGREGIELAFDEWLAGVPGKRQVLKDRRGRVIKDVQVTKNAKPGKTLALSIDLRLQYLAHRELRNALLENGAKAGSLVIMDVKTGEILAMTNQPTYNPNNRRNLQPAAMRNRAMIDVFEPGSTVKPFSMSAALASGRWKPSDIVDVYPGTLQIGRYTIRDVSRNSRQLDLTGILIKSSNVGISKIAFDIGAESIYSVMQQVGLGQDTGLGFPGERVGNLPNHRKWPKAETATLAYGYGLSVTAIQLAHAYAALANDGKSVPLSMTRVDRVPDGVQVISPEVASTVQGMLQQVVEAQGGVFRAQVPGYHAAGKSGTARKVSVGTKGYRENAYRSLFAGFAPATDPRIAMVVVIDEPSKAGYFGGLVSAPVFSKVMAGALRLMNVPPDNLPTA
Protocol: The assays were carried out in the presence of 5% DMSO and 0.01% Triton X100 to avoid the formation of colloidal structures and adsorption of protein and/or compounds to surfaces. The Z’-factor determined for the assay was 0.73 ± 0.28, indicating the suitability and robustness of the assay for high throughput screening (HTS) (Figure 1B,C).
The activity of soluble ^PaPBP3 (300 nM) was measured in the presence of 0.8 mM S2d, 1 mM D-alanine and 0.5 mM mBBr for 25 min by monitoring the increase in the fluorescence intensity of mBBr at Ex/Em: 394/490 nm using an Infinite M1000 microplate reader (Tecan, Männedorf, Switzerland). To test the effect of inhibitors, 100 µM or 0.8 to 100 µM of compounds diluted in 96% DMSO were incubated for 30 min and 450 rpm with 300 nM soluble PBP3. The incubation period was set to improve the binding of non-covalent inhibitors and 0.01% Triton X100 (Sigma-Aldrich, Taufkirchen, Germany) was added to prevent aggregation of compounds. The enzyme reaction was started by adding a substrate mix of 0.8 mM S2d and […]. The enzyme, compound and substrate mix were mixed 1:1, pipetted with a Liquidator 96 (Melter Toledo, Gießen, Germany) and the fluorescence intensity was directly monitored with an Infinite M1000 microplate reader (Tecan) at Ex/Em: 394/490 nm. The assay was performed in black, flat-bottom 96-well microplates (Greiner Bio-One, Kremsmünster, Austria) at 37 °C in Sorensen Phosphate Buffer (57 mM Na2HPO4 and 10 mM KH2PO4, pH 7.5 + 0.01% Triton X-100). The velocity of the PBP3 reaction was calculated in the presence of each concentration of compound and the velocity values were used to estimate IC50 by sigmoidal nonlinear regression, using Prism v.9 software (San Diego, CA, USA) and the velocity of the reaction at each concentration.

[2] = tested on: K. pneumoniae clinical isolate; test: MIC broth microdilution, K. pneumoniae; format: cell-based; details: Klebsiella pneumoniae; Table S3
How it was run: (§1)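 CLSI broth microdilution in cation-adjusted Mueller Hinton broth, 5 × 10^4 bacteria per well with 1:2 serial compound dilutions, PMBN added where applicable. MIC read visually after 18 h at 37 °C. Confirmation by 10% PrestoBlue, fluorescence at Ex/Em 550/595 nm after 30 min.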

A. baumannii ATCC15308 = test: MIC broth microdilution, A. baumannii; format: cell-based; details: 10 µg/mL PMBN
How it was run: as §1

S. pneumoniae = test: MIC broth microdilution, S. pneumoniae; format: cell-based; details: Streptococcus pneumoniae; Table S3; read-out: MIC (µM) S. pneumoniae
How it was run: as §1

S. aureus 133 = test: MIC broth microdilution, S. aureus; format: cell-based; details: Staphylococcus aureus, 133; Table S3
How it was run: as §1

[3] = tested on: T-lymphoblast CCRF-CEM cell line; test: Cytotoxicity assay (PrestoBlue), CCRF-CEM; details: CC50, 72 h
Protocol: (§2) We finally tested the cytotoxicity of the compounds against four eukaryotic cell lines (Table 2 and Table S5), NRK-52E, an epithelial kidney cell line of Rattus norvegicus; Hep G2, an human epithelial liver cell line; and two suspension cell lines: CCRF-CEM, a T lymphoblast; and H9, a cutaneous T lymphocyte cell line.
(§3) Cell lines stored at −120 °C were thawed to 37 °C and resuspended in 10 mL of medium pre-warmed to 37 °C. Cells were pelleted at 300× g for 10 min, and then resuspended in fresh medium, seeded in a T-75 culture flask, and placed in a CO2 incubator (37 °C with 5% CO2 tension). Once the cells reached approximately 70–80% confluency, they were then passaged regularly. The adherent cell lines NRK52E, HepG2 and Huh 7 were washed once with 10 mL DPBS and detached with Trypsin-EDTA for 5 to 7 min and resuspended in 15 mL of the appropriate medium. The suspension cell line CCRF-CEM were diluted and resuspended in fresh RPMI 1640 PAN medium. To calculate the cell density, the cell resuspensions were diluted 1:6 with DPBS. Equal volumes of cell suspension and Trypan Blue were mixed and gently loaded into a haemocytometer (INCYTO, 31056 Republic of Korea). In each experiment, cell concentrations were adjusted to reach a concentration of 2.5 × 10^3 cell/well for NRK52E, 5 × 10^3 cell/well for HepG2, 6.2 × 10^4 cell/well for CCRF-CEM and 3 × 10^3 for H9. The cells were incubated with decreasing concentration of compounds (1 µL in 96% DMSO) for 72 h at 37 °C with 5% CO2 tension. Cycloheximide, a cytotoxic compound that interferes with the translocation step in eukaryotic protein synthesis was used as a control for the experiments. The assay was carried out in flat-bottom, transparent 96-well plates. Cell viability was determined using the PrestoBlue reagent (Thermo Fisher Scientific, Waltham, MA, USA) according to the manufacture’s protocol. First, 10× PrestoBlue was added to each well to obtain a 1× solution, and incubated at 37 °C for 45 min. Then, fluorescence was measured at Ex/Em: 550/595 nm using a ClarioStar microplate reader (BMG Labtech). Cytotoxicity was determined as the percentage of the difference in absorbance of the untreated sample to the treated sample. CC50 was calculated using the values obtained in each concentration using the sigmoidal dose-response by Prism v.8. The media used in each cell line is detailed in Table S6.

[4] = tested on: NRK-52E, epithelial kidney cell line; test: Cytotoxicity assay (PrestoBlue), NRK52E; details: CC50, 72 h
Protocol: as §2, §3

[5] = tested on: H9, cutaneous T lymphocyte cell line; test: Cytotoxicity assay (PrestoBlue), H9; details: CC50, 72 h
Protocol: as §2, §3

SMILES | IC50 [1] [µM] | MIC [2] [µM] | MIC (µM) A. baumanii ATCC15308 (A. baumannii ATCC15308) [µM] | MIC (S. pneumoniae) [µM] | MIC (S. aureus 133) [µM] | Cytotoxicity CCRF-CEM [3] [µM] | Cytotoxicity effect (µM) Epithelial kidney NRK52E [4] [µM] | Cytotoxicity effect (µM) T-lymphocyte H9 [5] [µM] | IC50 Determination with PaPBP3, S2dfluo Assay [1]
O=C(C1=C(N2CCOCC2)C(=O)N(Cc2cccc(F)c2)C1c1ccc(Cl)cc1)c1ccc(Br)cc1 (centres unmarked) [Compound 44, 4-(4-bromobenzoyl)-5-(4-chlorophenyl)-1-[(3-fluorophenyl)methyl]-3-(morpholin-4-yl)-5H-pyrrol-2-one] | > 100 | > 100 | > 100 | > 100 | > 100 | > 100 | 52 ± 3 | > 100 | 
O=C(C1=C(O)C(=O)N(Cc2nc3ccccc3[nH]2)C1c1ccc(Cl)cc1)c1ccc(Br)cc1 (centres unmarked) [Compound 38] | 100 ± 11 | > 100 | > 100 | 25 (≈ 13.1 µg/mL) | > 100 | >100 | > 100 | > 100 | drastic loss of the inhibitory activity
